The record followed here is ChEMBL document CHEMBL5303573, “Mapping human microbiome drug metabolism by gut bacteria and their genes” (Nature, 2019).

SMILES strings stand for the structures.

A short description of the first data set: The drug is tested on Eubacterium hallii strain: DSM3353 for biotransformation. The drug concentrations were measured before and after a 12-h incubation by liquid-chromatography-coupled mass spectrometry (LC–MS). Particulars: anaerobutyricum hallii, 2 µM.
On to `CCc1nc(N)nc(N)c1-c1ccc(Cl)cc1` [PYRIMETHAMINE], for which the “Bacterial Biotransformation” value is on record as “Compound NOT metabolized”.
Same read-out and setting: with `O=C(NC(Cc1cc(=O)[nH]c2ccccc12)C(=O)O)c1ccc(Cl)cc1` (stereo not given) [REBAMIPIDE] the entry was “Compound NOT metabolized”.

The nature of a further data set: The drug is tested on Subdoligranulum variabile strain: DSM15176 for biotransformation. The drug concentrations were measured before and after a 12-h incubation by liquid-chromatography-coupled mass spectrometry (LC–MS). Particulars: 2 µM.
Regarding `O=C(NC(Cc1cc(=O)[nH]c2ccccc12)C(=O)O)c1ccc(Cl)cc1` (stereo not given) [REBAMIPIDE], the “Bacterial Biotransformation” value is “Compound NOT metabolized”.

A further data set can be described thus: The drug is tested on Bacteroides sp. WH2 strain: WH2 for biotransformation. The drug concentrations were measured before and after a 12-h incubation by liquid-chromatography-coupled mass spectrometry (LC–MS). The note with it: bacteroides sp. wh2, 12 h, 2 µM.
As to `CCc1nc(N)nc(N)c1-c1ccc(Cl)cc1` [PYRIMETHAMINE], the “Bacterial Biotransformation” value was “Compound NOT metabolized”.

Another data set in a line: The drug is tested on Bacteroides coprophilus strain: DSM18228 for biotransformation. The drug concentrations were measured before and after a 12-h incubation by liquid-chromatography-coupled mass spectrometry (LC–MS). Particulars: 2 µM.
In the case of `CCc1nc(N)nc(N)c1-c1ccc(Cl)cc1` [PYRIMETHAMINE], the “Bacterial Biotransformation” value was “Compound NOT metabolized”.
The same measure, in the same setting: with `O=C(NC(Cc1cc(=O)[nH]c2ccccc12)C(=O)O)c1ccc(Cl)cc1` (stereo not given) [REBAMIPIDE] the entry was “Compound NOT metabolized”.

The conditions of a further data set: bacteroides eggerthii, 12 h, 2 µM.
Description: The drug is tested on Bacteroides eggerthii strain: DSM20697 for biotransformation. The drug concentrations were measured before and after a 12-h incubation by liquid-chromatography-coupled mass spectrometry (LC–MS)
`CCc1nc(N)nc(N)c1-c1ccc(Cl)cc1` [PYRIMETHAMINE]: the “Bacterial Biotransformation” value is “Compound NOT metabolized”.
Take `O=C(NC(Cc1cc(=O)[nH]c2ccccc12)C(=O)O)c1ccc(Cl)cc1` (stereo not given) [REBAMIPIDE]: the “Bacterial Biotransformation” value is on record as “Compound NOT metabolized”.

The conditions of the next data set: bacteroides thetaiotaomicron, 12 h, 2 µM.
Description: The drug is tested on Bacteroides thetaiotaomicron strain: 7330 for biotransformation. The drug concentrations were measured before and after a 12-h incubation by liquid-chromatography-coupled mass spectrometry (LC–MS)
For `CCc1nc(N)nc(N)c1-c1ccc(Cl)cc1` [PYRIMETHAMINE], the “Bacterial Biotransformation” value was “Compound NOT metabolized”.
Still for that read-out and setting: the result for `O=C(NC(Cc1cc(=O)[nH]c2ccccc12)C(=O)O)c1ccc(Cl)cc1` (stereo not given) [REBAMIPIDE] reads “Compound metabolized”.

A short description of a further data set: The drug is tested on Bacteroides xylanisolvens strain: DSM18836 for biotransformation. The drug concentrations were measured before and after a 12-h incubation by liquid-chromatography-coupled mass spectrometry (LC–MS). Particulars: 2 µM.
As to `CCc1nc(N)nc(N)c1-c1ccc(Cl)cc1` [PYRIMETHAMINE], the “Bacterial Biotransformation” value is given as “Compound NOT metabolized”.
The same measure, in the same setting: with `O=C(NC(Cc1cc(=O)[nH]c2ccccc12)C(=O)O)c1ccc(Cl)cc1` (stereo not given) [REBAMIPIDE] the entry was “Compound metabolized”.

Another data set can be described thus: The drug is tested on Bacteroides dorei strain: DSM17855 for biotransformation. The drug concentrations were measured before and after a 12-h incubation by liquid-chromatography-coupled mass spectrometry (LC–MS). The note with it: phocaeicola dorei, 2 µM.
As to `CCc1nc(N)nc(N)c1-c1ccc(Cl)cc1` [PYRIMETHAMINE], the “Bacterial Biotransformation” value is “Compound NOT metabolized”.
`O=C(NC(Cc1cc(=O)[nH]c2ccccc12)C(=O)O)c1ccc(Cl)cc1` (stereo not given) [REBAMIPIDE]: the “Bacterial Biotransformation” value is listed as “Compound metabolized”.

A short description of another data set: The drug is tested on Bacteroides vulgatus strain: ATCC8482 for biotransformation. The drug concentrations were measured before and after a 12-h incubation by liquid-chromatography-coupled mass spectrometry (LC–MS). The note with it: phocaeicola vulgatus, 2 µM.
For the compound `CCc1nc(N)nc(N)c1-c1ccc(Cl)cc1` [PYRIMETHAMINE], the “Bacterial Biotransformation” value is reported as “Compound NOT metabolized”.

The conditions of a further data set: parabacteroides distasonis, 12 h, 2 µM.
Description: The drug is tested on Parabacteroides distasonis strain: ATCC8503 for biotransformation. The drug concentrations were measured before and after a 12-h incubation by liquid-chromatography-coupled mass spectrometry (LC–MS)
As to `CCc1nc(N)nc(N)c1-c1ccc(Cl)cc1` [PYRIMETHAMINE], the “Bacterial Biotransformation” value is “Compound NOT metabolized”.
The same measure, in the same setting: with `O=C(NC(Cc1cc(=O)[nH]c2ccccc12)C(=O)O)c1ccc(Cl)cc1` (stereo not given) [REBAMIPIDE] the entry was “Compound NOT metabolized”.

A further data set can be described thus: The drug is tested on Clostridium sporogenes strain: ATCC15579 for biotransformation. The drug concentrations were measured before and after a 12-h incubation by liquid-chromatography-coupled mass spectrometry (LC–MS). Particulars: 2 µM.
`CCc1nc(N)nc(N)c1-c1ccc(Cl)cc1` [PYRIMETHAMINE]: the “Bacterial Biotransformation” value is given as “Compound NOT metabolized”.

For the next data set the following is noted: limosilactobacillus reuteri cf48-3a, 12 h, 2 µM.
Description: The drug is tested on Lactobacillus reuteri CF48-3A strain: BEI HM-102 for biotransformation. The drug concentrations were measured before and after a 12-h incubation by liquid-chromatography-coupled mass spectrometry (LC–MS)
Take `CCc1nc(N)nc(N)c1-c1ccc(Cl)cc1` [PYRIMETHAMINE]: the “Bacterial Biotransformation” value is reported as “Compound NOT metabolized”.

The nature of the next data set: The drug is tested on Clostridium asparagiforme strain: DSM15981 for biotransformation. The drug concentrations were measured before and after a 12-h incubation by liquid-chromatography-coupled mass spectrometry (LC–MS). Particulars: enterocloster asparagiformis, 2 µM. On the set-up: dose 2 uM, timepoint 0 vs 12 hours. It counts as ADME.
Regarding `CCc1nc(N)nc(N)c1-c1ccc(Cl)cc1` [PYRIMETHAMINE], the “Bacterial Biotransformation” value is on record as “Compound NOT metabolized”.
For `O=C(NC(Cc1cc(=O)[nH]c2ccccc12)C(=O)O)c1ccc(Cl)cc1` (stereo not given) [REBAMIPIDE], the “Bacterial Biotransformation” value is reported as “Compound NOT metabolized”.

The conditions of a further data set: bacteroides stercoris, 12 h, 2 µM.
Description: The drug is tested on Bacteroides stercoris strain: ATCC43183 for biotransformation. The drug concentrations were measured before and after a 12-h incubation by liquid-chromatography-coupled mass spectrometry (LC–MS)
For the compound `CCc1nc(N)nc(N)c1-c1ccc(Cl)cc1` [PYRIMETHAMINE], the “Bacterial Biotransformation” value is given as “Compound NOT metabolized”.
Same read-out and setting: the result for `O=C(NC(Cc1cc(=O)[nH]c2ccccc12)C(=O)O)c1ccc(Cl)cc1` (stereo not given) [REBAMIPIDE] reads “Compound NOT metabolized”.

For the next data set the following is noted: anaerostipes sp., 12 h, 2 µM.
Description: The drug is tested on Anaerostipes sp. strain: fecal isolate for biotransformation. The drug concentrations were measured before and after a 12-h incubation by liquid-chromatography-coupled mass spectrometry (LC–MS)
With `CCc1nc(N)nc(N)c1-c1ccc(Cl)cc1` [PYRIMETHAMINE], the “Bacterial Biotransformation” value is listed as “Compound NOT metabolized”.
On the same count and under the same terms, with `O=C(NC(Cc1cc(=O)[nH]c2ccccc12)C(=O)O)c1ccc(Cl)cc1` (stereo not given) [REBAMIPIDE] the entry was “Compound NOT metabolized”.

The next data set is described as follows: The drug is tested on Clostridium symbiosum strain: ATCC14940 for biotransformation. The drug concentrations were measured before and after a 12-h incubation by liquid-chromatography-coupled mass spectrometry (LC–MS). Particulars: 2 µM.
For `CCc1nc(N)nc(N)c1-c1ccc(Cl)cc1` [PYRIMETHAMINE], the “Bacterial Biotransformation” value was “Compound NOT metabolized”.
The same measure, in the same setting: with `O=C(NC(Cc1cc(=O)[nH]c2ccccc12)C(=O)O)c1ccc(Cl)cc1` (stereo not given) [REBAMIPIDE] the entry was “Compound NOT metabolized”.

A short description of the next data set: The drug is tested on Bacteroides uniformis strain: ATCC8492 for biotransformation. The drug concentrations were measured before and after a 12-h incubation by liquid-chromatography-coupled mass spectrometry (LC–MS). The note with it: 2 µM.
Consider `CCc1nc(N)nc(N)c1-c1ccc(Cl)cc1` [PYRIMETHAMINE], for which the “Bacterial Biotransformation” value was “Compound NOT metabolized”.
On the same count and under the same terms, the result for `O=C(NC(Cc1cc(=O)[nH]c2ccccc12)C(=O)O)c1ccc(Cl)cc1` (stereo not given) [REBAMIPIDE] reads “Compound metabolized”.

Another data set is described as follows: The drug is tested on Ruminococcus torques strain: ATCC27756 for biotransformation. The drug concentrations were measured before and after a 12-h incubation by liquid-chromatography-coupled mass spectrometry (LC–MS). It counts as ADME. More on the design: dose 2 uM, timepoint 0 vs 12 hours. The note with it: 2 µM.
For the compound `CCc1nc(N)nc(N)c1-c1ccc(Cl)cc1` [PYRIMETHAMINE], the “Bacterial Biotransformation” value is listed as “Compound NOT metabolized”.
Same read-out and setting: the result for `O=C(NC(Cc1cc(=O)[nH]c2ccccc12)C(=O)O)c1ccc(Cl)cc1` (stereo not given) [REBAMIPIDE] reads “Compound NOT metabolized”.

A short description of a further data set: The drug is tested on Anaerotruncus colihominis strain: DSM17241 for biotransformation. The drug concentrations were measured before and after a 12-h incubation by liquid-chromatography-coupled mass spectrometry (LC–MS). The note with it: 2 µM.
On to `CCc1nc(N)nc(N)c1-c1ccc(Cl)cc1` [PYRIMETHAMINE], for which the “Bacterial Biotransformation” value was “Compound NOT metabolized”.
The same measure, in the same setting: with `O=C(NC(Cc1cc(=O)[nH]c2ccccc12)C(=O)O)c1ccc(Cl)cc1` (stereo not given) [REBAMIPIDE] the entry was “Compound NOT metabolized”.

The next data set in a line: The drug is tested on Collinsella intestinalis strain: DSM13280 for biotransformation. The drug concentrations were measured before and after a 12-h incubation by liquid-chromatography-coupled mass spectrometry (LC–MS). Particulars: 2 µM.
On to `CCc1nc(N)nc(N)c1-c1ccc(Cl)cc1` [PYRIMETHAMINE], for which the “Bacterial Biotransformation” value is reported as “Compound NOT metabolized”.
Same read-out and setting: with `O=C(NC(Cc1cc(=O)[nH]c2ccccc12)C(=O)O)c1ccc(Cl)cc1` (stereo not given) [REBAMIPIDE] the entry was “Compound NOT metabolized”.
